Data: patent US20240301472A1, “NUCLEIC ACID DETECTION METHOD, COMPOUND AND FLUORESCENT PROBE” (WAKAYAMA UNIVERSITY, priority 2020, published 2024)

Columns and labels:
fixed HeLa cells = experiment: Competition experiment with Hoechist 33258 using fixed HeLa cells; format: cell-based; conditions: Hoechist 33258 0-6.0 μM with compound 10 (6 μM) in PBS
Protocol: In a ninth experiment, a competition experiment with Hoechist 33258 was performed using fixed HeLa cells. As the staining liquid, one obtained by causing Hoechist 33258 at an arbitrary concentration (0 μM, 1.5 μM, 3.0 μM, 6.0 μM) to coexist in a PBS solution of the compound 10 (6 μM) was used, and the experiment was performed according to an operation similar to that in the fourth experiment. […] In FIG. 27, “Ph” is a phase contrast observation image of cells at each concentration of Hoechist 33258. “Hoe” is a 460 nm fluorescence image at each concentration of Hoechist 33258. The fluorescence wavelength of Hoechist 33258 is 460 nm. “600 nm” is a 600 nm fluorescence image. “700 nm” is a 700 nm fluorescence image. “600 nm/700 nm” is a synthesized image of “600 nm” and “700 nm”. “Magnified 600 nm/700 nm” is a magnified image of “600 nm/700 nm”.

living HeLa cells = experiment: Competition experiment with Hoechist 33258 using living HeLa cells; format: cell-based; conditions: Hoechist 33258 0-20 μM with compound 10 (1 μM) in 5% glucose
Protocol: In a tenth experiment, a competition experiment with Hoechist 33258 was performed using living HeLa cells. As the staining liquid, one obtained by causing Hoechist 33258 at an arbitrary concentration (0 μM, 5.0 μM, 10 μM, 20 μM) to coexist in a 5% glucose solution of the compound 10 (1 μM) was used, and the experiment was performed according to an operation similar to that in the sixth experiment. […] In FIG. 28, “600 nm” is a 600 nm fluorescence image. “700 nm” is a 700 nm fluorescence image. “Hoe” is a 460 nm fluorescence image at each concentration of Hoechist 33258. “Merged” is a synthesized image of “600 nm”, “700 nm”, and “Hoe”.

[1] = system: viable cells (HeLA, A549, HEK293, MRC-5); experiment: Tracking of quadruplex nucleic acid formation in viable cells stained by compound 10 (response to PDS); format: cell-based; conditions: PDS 20 μM added to viable cells stained by compound 10 (1 μM)
Protocol: In the seventh experiment, pyridostatin (PDS: 20 μM) was added to viable cells stained by the same method as that in the sixth experiment and temporal change of a fluorescence image thereafter was observed. Pyridostatin (PDS) is a reagent for stabilizing quadruplex nucleic acids. FIG. 24 and FIG. 25 show the result of the seventh experiment.
In FIG. 25 as well, a case where PDS was added to the viable cells stained by the compound 10 was indicated with PDS (+), and a case where PDS was not added was indicated with PDS (−). In FIG. 25, the vertical axis represents intensity ratio between 600 nm fluorescence and 700 nm fluorescence, and the horizontal axis represents time after addition of PDS.

ds(AAATTT) being a dsDNA = conditions: conventional fluorescent ds probe, comparison value, read-out: dissociation constant; cited from earlier work

CN1CCN(c2ccc3[nH]c(-c4ccc5[nH]c(-c6ccc(O)cc6)nc5c4)nc3c2)CC1 [Hoechist 33258]
600 nm fluorescence intensity of compound 10 with increasing Hoechist 33258 concentration (fixed HeLa cells): significantly decreased
600 nm fluorescence intensity of compound 10 with increasing Hoechist 33258 concentration (living HeLa cells): significantly decreased

NCCOc1cc(C(=O)Nc2cc(OCCN)c3ccccc3n2)nc(C(=O)Nc2cc(OCCN)c3ccccc3n2)c1 [PDS, Pyridostatin]
intensity ratio of 700 nm fluorescence to 600 nm fluorescence [1]: increased

C[n+]1c(/C=C/c2ccc(O)c(/C=C/c3sc4ccccc4[n+]3C)c2)sc2ccccc21 [QCy-DT, quinone cyanine-dithiazole]
Kd (ds(AAATTT) being a dsDNA): ~670 nM
